The assay has as its target T1, BTK (Homo sapiens, UniProt Q06187).
T1 construct: endogenous in cells; host or cells: Mino cells
Nature of the assay: BTK degradation activity test in Mino cells (Westernblot or Elisa). Format: cell-based. The note with it: 24-72 h incubation. How it is done:
The Mino cell line cells are 0.5˜1 million/well in 6-well plates. The compounds are diluted to different concentrations, added to the plate, and after 24-72 h of incubation, the cells are collected. After the cells were lysed, the total protein concentration in each well was determined with a BCA kit. The amount of BTK is determined using the Westernblot or Elisa method.
T1 sequence (Q06187 whole entry): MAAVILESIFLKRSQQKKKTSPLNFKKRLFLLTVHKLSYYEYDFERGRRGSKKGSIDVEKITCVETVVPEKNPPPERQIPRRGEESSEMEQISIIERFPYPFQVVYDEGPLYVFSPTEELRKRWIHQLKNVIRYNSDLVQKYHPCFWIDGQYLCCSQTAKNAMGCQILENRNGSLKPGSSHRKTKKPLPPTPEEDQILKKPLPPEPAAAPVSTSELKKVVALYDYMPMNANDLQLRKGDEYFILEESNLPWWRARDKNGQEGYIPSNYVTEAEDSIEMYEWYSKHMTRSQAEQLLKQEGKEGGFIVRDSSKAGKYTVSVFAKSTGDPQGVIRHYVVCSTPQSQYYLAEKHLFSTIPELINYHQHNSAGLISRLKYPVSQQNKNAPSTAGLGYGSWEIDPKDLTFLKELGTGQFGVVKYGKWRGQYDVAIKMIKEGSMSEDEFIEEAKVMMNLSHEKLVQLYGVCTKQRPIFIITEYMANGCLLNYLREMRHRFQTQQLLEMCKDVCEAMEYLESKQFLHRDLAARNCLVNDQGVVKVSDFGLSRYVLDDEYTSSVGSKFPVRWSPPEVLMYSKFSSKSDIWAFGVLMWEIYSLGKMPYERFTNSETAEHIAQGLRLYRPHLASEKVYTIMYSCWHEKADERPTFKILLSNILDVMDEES
In turn, `NC(=O)c1nnc(N2CCC[C@@H](O)C2)nc1Nc1ccc(C2CCN(CC3CCN(c4ccc5c(c4)C(=O)N(C4CCC(=O)NC4=O)C5=O)C3)CC2)c(F)c1` (stereo partly drawn) [Compound 067, 5-((4-(1-((1-(2-(2,6-dioxopiperidin-3-yl)-1,3-dioxoisoindolin-5-yl)pyrrolidin-3-yl)methyl)piperidin-4-yl)-3-fluorophenyl)amino)-3-((R)-3-hydroxypiperidin-1-yl)-1,2,4-triazine-6-carboxamide] returned a DC50 of less than 10 nM.

On to `CC(C)(C)C(=O)OCN1C(=O)CCC(N2C(=O)c3ccc(N4CCC(CN5CCC(c6ccc(Nc7nc(N8CCCCC8)nnc7C(N)=O)cc6F)CC5)C4)cc3C2=O)C1=O` (centres unmarked) [Compound 068, (3-(5-(3-((4-(4-((6-carbamoyl-3-(piperidin-1-yl)-1,2,4-triazin-5-yl)amino)-2-fluorophenyl)piperidin-1-yl)methyl)pyrrolidin-1-yl)-1,3-dioxoisoindolin-2-yl)-2,6-dioxopiperidin-1-yl) methyl pivalate], for which the DC50 is less than 10 nM.

Regarding `CC(OC(=O)C(C)(C)C)N1C(=O)CCC(N2C(=O)c3ccc(N4CCC(CN5CCC(c6ccc(Nc7nc(N8CCCCC8)nnc7C(N)=O)cc6)CC5)C4)cc3C2=O)C1=O` (centres unmarked) [Compound 069, 1-(3-(5-(3-((4-(4-((6-carbamoyl-3-(piperidin-1-yl)-1,2,4-triazin-5-yl)amino)phenyl)piperidin-1-yl)methyl)pyrrolidin-1-yl)-1,3-dioxoisoindolin-2-yl)-2,6-dioxopiperidin-1-yl) ethyl pivalate], the DC50 is less than 10 nM.

As for `CC(OC(=O)C(C)(C)C)N1C(=O)CCC(N2C(=O)c3ccc(N4CCC(CN5CCC(c6ccc(Nc7nc(N8CCN(C)CC8)nnc7C(N)=O)cc6)CC5)C4)cc3C2=O)C1=O` (centres unmarked) [Compound 070, 1-(3-(5-(3-((4-(4-((6-carbamoyl-3-(4-methylpiperazin-1-yl)-1,2,4-triazin-5-yl)amino)phenyl)piperidin-1-yl)methyl)pyrrolidin-1-yl)-1,3-dioxoisoindolin-2-yl)-2,6-dioxopiperidin-1-yl) ethyl pivalate], the DC50 is less than 10 nM.

`CC(OC(=O)C(C)(C)C)N1C(=O)CCC(N2C(=O)c3ccc(N4CCC(CN5CCN(c6ccc(Nc7nc(N8CCCCC8)nnc7C(N)=O)cc6F)CC5)C4)cc3C2=O)C1=O` (centres unmarked) [Compound 071, 1-(3-(5-(3-((4-(4-((6-carbamoyl-3-(piperidin-1-yl)-1,2,4-triazin-5-yl)amino)-2-fluorophenyl)piperazin-1-yl)methyl)pyrrolidin-1-yl)-1,3-dioxoisoindolin-2-yl)-2,6-dioxopiperidin-1-yl) ethyl pivalate] registered a DC50 of less than 10 nM.

The compound `CC(OC(=O)C(C)(C)C)N1C(=O)CCN(c2ccc(N3CCN(CC4CCN(c5ccc(Nc6nc(N7CCCCC7)nnc6C(N)=O)cc5F)CC4)CC3)cc2)C1=O` (centres unmarked) [Compound 072, 1-(3-(4-(4-((1-(4-((6-carbamoyl-3-(piperidin-1-yl)-1,2,4-triazin-5-yl)amino)-2-fluorophenyl)piperidin-4-yl)methyl)piperazin-1-yl)phenyl)-2,6-dioxotetrahydropyrimidin-1(2H)-yl) ethyl pivalate] yielded a DC50 of less than 10 nM.

Compound `CC(C)[C@H](N)C(=O)OCN1C(=O)CCC(N2C(=O)c3ccc(N4CCC(CN5CCC(c6ccc(Nc7nc(N8CCCCC8)nnc7C(N)=O)cc6)CC5)C4)cc3C2=O)C1=O` (stereo partly drawn) [Compound 073, (3-(5-(3-((4-(4-((6-carbamoyl-3-(piperidin-1-yl)-1,2,4-triazin-5-yl)amino)phenyl)piperidin-1-yl)methyl)pyrrolidin-1-yl)-1,3-dioxoisoindolin-2-yl)-2,6-dioxopiperidin-1-yl) methyl L-valinate] returned a half-maximal degradation concentration (DC50) of less than 10 nM.

Consider `CC(C)[C@H](N)C(=O)OCN1C(=O)CCC(N2C(=O)c3ccc(N4CCC(CN5CCN(c6ccc(Nc7nc(N8CCCCC8)nnc7C(N)=O)cc6F)CC5)C4)cc3C2=O)C1=O` (stereo partly drawn) [Compound 074, (3-(5-(3-((4-(4-((6-carbamoyl-3-(piperidin-1-yl)-1,2,4-triazin-5-yl)amino)-2-fluorophenyl)piperazin-1-yl)methyl)pyrrolidin-1-yl)-1,3-dioxoisoindolin-2-yl)-2,6-dioxopiperidin-1-yl) methyl L-valinate], for which the DC50 was less than 10 nM.

The compound `NC(=O)c1nnc(N2CCCCC2)nc1Nc1ccc(N2CCN(CC3CCN(c4ccc(N5CCC(=O)NC5=O)cc4)CC3)CC2)c(F)c1` [Compound 080, 5-((4-(4-((1-(4-(2,4-dioxotetrahydropyrimidin-1(2H)-yl)phenyl)piperidin-4-yl)methyl)piperazin-1-yl)-3-fluorophenyl)amino)-3-(piperidin-1-yl)-1,2,4-triazine-6-carboxamide] returned a 50% degradation concentration (DC50) of less than 10 nM.

The compound `NC(=O)c1nnc(N2CCCCC2)nc1Nc1ccc(N2CCC(CN3CCN(c4ccc(-c5ccc(=O)[nH]n5)cc4C(F)(F)F)CC3)CC2)c(F)c1` [Compound 089, 5-((3-fluoro-4-(4-((4-(4-(6-oxo-1,6-dihydropyridazin-3-yl)-2-(trifluoromethyl)phenyl)piperazin-1-yl)methyl)piperidin-1-yl)phenyl)amino)-3-(piperidin-1-yl)-1,2,4-triazine-6-carboxamide] showed a DC50 of less than 10 nM.

Take `CC(=O)N[C@@H]1CCCN(c2nnc(C(N)=O)c(Nc3ccc(N4CCN(CC5CCN(c6ccc(N7CCC(=O)NC7=O)cc6)CC5)CC4)c(F)c3)n2)C1` [Compound 091, (R)-3-(3-acetamidopiperidin-1-yl)-5-((4-(4-((1-(4-(2,4-dioxotetrahydropyrimidin-1(2H)-yl)phenyl)piperidin-4-yl)methyl)piperazin-1-yl)-3-fluorophenyl)amino)-1,2,4-triazine-6-carboxamide]: the DC50 was less than 10 nM.

`CC(=O)N[C@@H]1CCCN(c2nnc(C(N)=O)c(Nc3ccc(N4CCN(CC5CCN(c6ccc(C(=O)NC7CCC(=O)NC7=O)c(F)c6)CC5)CC4)c(F)c3)n2)C1` (stereo partly drawn) [Compound 093, 3-((R)-3-acetamidopiperidin-1-yl)-5-((4-(4-((1-(4-((2,6-dioxopiperidin-3-yl)carbamoyl)-3-fluorophenyl)piperidin-4-yl)methyl)piperazin-1-yl)-3-fluorophenyl)amino)-1,2,4-triazine-6-carboxamide]: the DC50 is less than 10 nM.

As to `CC(=O)N[C@@H]1CCCN(c2nnc(C(N)=O)c(Nc3ccc(N4CCN(CC5CCN(c6ncc(-c7ccc(=O)[nH]n7)cc6C(F)(F)F)CC5)CC4)c(F)c3)n2)C1` [Compound 094, (R)-3-(3-acetamidopiperidin-1-yl)-5-((3-fluoro-4-(4-((1-(5-(6-oxo-1,6-dihydropyridazin-3-yl)-3-(trifluoromethyl)pyridin-2-yl)piperidin-4-yl)methyl)piperazin-1-yl)phenyl)amino)-1,2,4-triazine-6-carboxamide], the DC50 was less than 10 nM.

In turn, `CC(=O)N[C@@H]1CCCN(c2nnc(C(N)=O)c(Nc3ccc(N4CCN(CC5CCN(c6ccc(-c7ccc(=O)[nH]n7)cc6C(F)(F)F)CC5)CC4)c(F)c3)n2)C1` [Compound 095, (R)-3-(3-acetamidopiperidin-1-yl)-5-((3-fluoro-4-(4-((1-(4-(6-oxo-1,6-dihydropyridazin-3-yl)-2-(trifluoromethyl)phenyl)piperidin-4-yl)methyl)piperazin-1-yl)phenyl)amino)-1,2,4-triazine-6-carboxamide] showed a DC50 of less than 10 nM.

With `CC(=O)N[C@@H]1CCCN(c2nnc(C(N)=O)c(Nc3ccc(N4CCN(CC5CCN(c6ccc(NC7CCC(=O)NC7=O)nc6)CC5)CC4)c(F)c3)n2)C1` (stereo partly drawn) [Compound 096, 3-((R)-3-acetamidopiperidin-1-yl)-5-((4-(4-((1-(6-((2,6-dioxopiperidin-3-yl)amino)pyridin-3-yl)piperidin-4-yl)methyl)piperazin-1-yl)-3-fluorophenyl)amino)-1,2,4-triazine-6-carboxamide], the DC50 was less than 10 nM.

The compound `CC(=O)N[C@@H]1CCCN(c2nnc(C(N)=O)c(Nc3ccc(N4CCN(CC5CCN(c6ccc(NC7CCC(=O)NC7=O)c(F)c6)CC5)CC4)c(F)c3)n2)C1` (stereo partly drawn) [Compound 097, 3-((R)-3-acetamidopiperidin-1-yl)-5-((4-(4-((1-(4-((2,6-dioxopiperidin-3-yl)amino)-3-fluorophenyl)piperidin-4-yl)methyl)piperazin-1-yl)-3-fluorophenyl)amino)-1,2,4-triazine-6-carboxamide] registered a DC50 of less than 10 nM.

Compound `NC(=O)c1nnc(N2CCOCC2)nc1Nc1ccc(N2CCN(CC3CCN(c4ccc(N5CCC(=O)NC5=O)cc4)CC3)CC2)c(F)c1` [Compound 099, 5-((4-(4-((1-(4-(2,4-dioxotetrahydropyrimidin-1(2H)-yl)phenyl)piperidin-4-yl)methyl)piperazin-1-yl)-3-fluorophenyl)amino)-3-morpholino-1,2,4-triazine-6-carboxamide] returned a DC50 of less than 10 nM.

On to `NC(=O)c1nnc(N2CCOCC2)nc1Nc1ccc(N2CCN(CC3CCN(c4ccc(C(=O)NC5CCC(=O)NC5=O)c(F)c4)CC3)CC2)c(F)c1` (centres unmarked) [Compound 101, 5-((4-(4-((1-(4-((2,6-dioxopiperidin-3-yl)carbamoyl)-3-fluorophenyl)piperidin-4-yl)methyl)piperazin-1-yl)-3-fluorophenyl)amino)-3-morpholino-1,2,4-triazine-6-carboxamide], for which the DC50 was less than 10 nM.

Consider `NC(=O)c1nnc(N2CCOCC2)nc1Nc1ccc(N2CCN(CC3CCN(c4ncc(-c5ccc(=O)[nH]n5)cc4C(F)(F)F)CC3)CC2)c(F)c1` [Compound 102, 5-((3-fluoro-4-(4-((1-(5-(6-oxo-1,6-dihydropyridazin-3-yl)-3-(trifluoromethyl)pyridin-2-yl)piperidin-4-yl)methyl)piperazin-1-yl)phenyl)amino)-3-morpholino-1,2,4-triazine-6-carboxamide], for which the DC50 was less than 10 nM.

Consider `NC(=O)c1nnc(N2CCOCC2)nc1Nc1ccc(N2CCN(CC3CCN(c4ccc(-c5ccc(=O)[nH]n5)cc4C(F)(F)F)CC3)CC2)c(F)c1` [Compound 103, 5-((3-fluoro-4-(4-((1-(4-(6-oxo-1,6-dihydropyridazin-3-yl)-2-(trifluoromethyl)phenyl)piperidin-4-yl)methyl)piperazin-1-yl)phenyl)amino)-3-morpholino-1,2,4-triazine-6-carboxamide], for which the DC50 is less than 10 nM.

These data come from patent US20260167620A1, “MULTIFUNCTIONAL COMPOUND CAPABLE OF DEGRADING BTK KINASE, AND COMPOSITION AND USE” (HANGZHOU HEALZEN THERAPEUTICS CO., LTD., priority 2021, published 2026).
